Results: US8148391B2 (Cephalon, Inc., priority 2006, dated 2012)
Like-named read-outs stand apart in the source and are kept apart here. One block for each molecule: values may come before it.

Legend:
[1] = molecular target: T1, baculovirus-expressed ALK (Homo sapiens, UniProt Q9UM73); assay: ALK Kinase Assay (ELISA-type, time-resolved fluorescence); type: biochemical
T1 construct: host or cells: baculovirus expression system
Method in brief: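 Substrate coating: phospholipase C-γ, 10 μg/mL in TBS. Kinase step: 30 ng/ml ALK, 15 min, 37° C. Detection and analysis: Eu-N1 PT66 antibody, with IC50 fitted as a sigmoidal variable-slope dose-response curve.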

[2] = molecular target: T2, c-Met (cytoplasmic domain) (Homo sapiens, UniProt P08581); assay: c-Met Kinase Assay (same methods as for ALK, with modifications); type: biochemical
T2 construct: 10 ng/mL c-Met (cytoplasmic domain, Invitrogen Corporation #PV3143); purchased Invitrogen Corporation PV3143
T2 sequence (P08581 956-1390 limits assumed): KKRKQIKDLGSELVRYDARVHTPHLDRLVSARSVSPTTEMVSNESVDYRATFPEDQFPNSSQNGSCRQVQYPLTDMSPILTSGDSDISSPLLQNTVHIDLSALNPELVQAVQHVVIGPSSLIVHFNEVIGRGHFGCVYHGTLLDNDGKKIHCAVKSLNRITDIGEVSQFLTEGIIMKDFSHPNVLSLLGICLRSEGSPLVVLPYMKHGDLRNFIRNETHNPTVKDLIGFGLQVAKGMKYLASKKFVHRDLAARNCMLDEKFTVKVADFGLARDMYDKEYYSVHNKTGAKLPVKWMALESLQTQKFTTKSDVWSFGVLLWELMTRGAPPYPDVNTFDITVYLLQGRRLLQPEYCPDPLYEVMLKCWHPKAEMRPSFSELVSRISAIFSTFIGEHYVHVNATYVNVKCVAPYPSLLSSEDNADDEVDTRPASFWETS
Method in brief: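 Wells were coated with 10 μg/mL phospholipase C-γ substrate in TBS, and reactions were started with 10 ng/mL c-Met cytoplasmic domain and run at 37° C for 15 minutes. Phosphorylated product was detected with Eu-N1-labeled PT66 antibody. IC50 values came from sigmoidal variable-slope fits of percent inhibition versus log compound concentration.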

[3] = 1 μM ATP (Km level), read-out: ALK Activity (ALK Kinase Inhibition, IC50)
[4] = 1 μM ATP (Km level), read-out: cMet Activity (c-Met Kinase Inhibition, IC50)
[5] = ALK kinase inhibition, 1 μM ATP, read-out: ALK Activity
[6] = c-Met kinase inhibition, 1 μM ATP, read-out: cMet Activity
[7] = ALK kinase inhibition, 1 μM ATP (Km level), read-out: ALK Activity
[8] = c-Met kinase inhibition, 1 μM ATP (Km level), read-out: cMet Activity
[9] = 1 μM ATP (Km level), 30 ng/ml ALK, 37° C., 15 minutes, read-out: ALK Activity (ALK kinase inhibition, IC50 class)
[10] = 1 μM ATP (Km level), 10 ng/mL c-Met, read-out: cMet Activity (c-Met kinase inhibition, IC50 class)

T1 sequence (Q9UM73 19-1620): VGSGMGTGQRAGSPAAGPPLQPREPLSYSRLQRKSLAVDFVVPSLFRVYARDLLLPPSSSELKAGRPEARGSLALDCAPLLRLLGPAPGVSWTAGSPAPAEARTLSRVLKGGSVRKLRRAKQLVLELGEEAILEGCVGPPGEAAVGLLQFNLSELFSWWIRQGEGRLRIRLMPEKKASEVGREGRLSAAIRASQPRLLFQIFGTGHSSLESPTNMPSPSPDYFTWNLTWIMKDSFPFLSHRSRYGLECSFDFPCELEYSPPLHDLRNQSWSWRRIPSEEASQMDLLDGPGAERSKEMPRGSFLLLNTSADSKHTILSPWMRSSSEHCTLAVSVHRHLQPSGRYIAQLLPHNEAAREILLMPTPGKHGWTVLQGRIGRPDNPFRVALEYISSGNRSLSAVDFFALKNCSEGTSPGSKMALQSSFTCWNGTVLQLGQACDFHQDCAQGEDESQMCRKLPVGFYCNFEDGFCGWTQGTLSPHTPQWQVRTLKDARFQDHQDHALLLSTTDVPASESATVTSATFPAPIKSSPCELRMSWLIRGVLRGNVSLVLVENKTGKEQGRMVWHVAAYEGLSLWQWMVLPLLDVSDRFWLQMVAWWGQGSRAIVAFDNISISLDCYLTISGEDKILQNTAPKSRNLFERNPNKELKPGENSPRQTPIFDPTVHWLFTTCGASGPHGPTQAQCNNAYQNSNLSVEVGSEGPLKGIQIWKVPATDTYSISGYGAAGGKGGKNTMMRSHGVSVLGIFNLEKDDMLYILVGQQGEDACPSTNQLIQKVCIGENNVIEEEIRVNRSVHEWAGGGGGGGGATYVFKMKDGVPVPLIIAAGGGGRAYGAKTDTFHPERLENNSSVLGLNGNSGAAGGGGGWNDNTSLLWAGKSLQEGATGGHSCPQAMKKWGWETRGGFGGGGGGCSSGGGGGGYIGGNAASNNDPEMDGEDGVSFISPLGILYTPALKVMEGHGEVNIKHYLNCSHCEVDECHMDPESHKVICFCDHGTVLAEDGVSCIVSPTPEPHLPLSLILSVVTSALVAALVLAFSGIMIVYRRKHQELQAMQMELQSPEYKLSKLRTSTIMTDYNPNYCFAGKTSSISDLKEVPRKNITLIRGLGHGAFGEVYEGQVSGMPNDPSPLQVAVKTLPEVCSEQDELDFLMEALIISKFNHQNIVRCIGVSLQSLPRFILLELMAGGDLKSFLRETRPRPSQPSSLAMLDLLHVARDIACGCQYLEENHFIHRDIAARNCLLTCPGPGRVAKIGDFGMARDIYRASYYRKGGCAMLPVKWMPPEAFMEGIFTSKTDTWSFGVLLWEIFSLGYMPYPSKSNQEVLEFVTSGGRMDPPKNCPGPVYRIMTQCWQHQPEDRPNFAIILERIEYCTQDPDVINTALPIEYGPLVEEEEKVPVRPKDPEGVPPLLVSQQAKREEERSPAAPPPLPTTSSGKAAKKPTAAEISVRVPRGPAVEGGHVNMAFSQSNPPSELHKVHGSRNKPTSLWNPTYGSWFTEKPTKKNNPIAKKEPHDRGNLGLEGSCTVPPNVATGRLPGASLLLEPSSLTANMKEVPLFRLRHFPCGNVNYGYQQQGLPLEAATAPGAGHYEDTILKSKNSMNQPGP

SMILES: CN1C(=O)OCCc2cc(Nc3ncc(Cl)c(Nc4cccc5[nH]ncc45)n3)ccc21 [Example 1769, 2-[5-Chloro-4-(1H-indazol-4-ylamino)-pyrimidin-2-ylamino]-5-methyl-8,9-dihydro-5H-7-oxa-5-aza-benzocyclohepten-6-one]
IC50 [1, 5]: 100 to 1000 nM | IC50 [2, 6]: 100 to 1000 nM

SMILES: COc1cc(N2CCOCC2)ccc1Nc1nc(Nc2ccc3c(c2)CCC(F)(F)CC3)ncc1Cl [Example 182, 5-Chloro-N*2*-(7,7-difluoro-6,7,8,9-tetrahydro-5H-benzocyclohepten-2-yl)-N*4*-(2-methoxy-4-morpholin-4-yl-phenyl)-pyrimidine-2,4-diamine]
IC50 [1, 7]: 100 to 1000 nM | IC50 [2, 8]: > 10000 nM

SMILES: CC(C)S(=O)(=O)c1cccc(F)c1Nc1nc(Nc2ccc3c(c2)-n2ccnc2CCC3)ncc1Cl [Example 1842, 5-Chloro-N*2*-(5,6-dihydro-4H-3,10b-diaza-benzo[e]azulen-9-yl)-N*4*-[2-fluoro-6-(propane-2-sulfonyl)-phenyl]-pyrimidine-2,4-diamine]
IC50 [1, 5]: < 100 nM | IC50 [2, 6]: < 100 nM

SMILES: COc1cc2c(cc1Nc1ncc(Cl)c(N[C@@H]3CCCC[C@H]3NS(C)(=O)=O)n1)CCN(C(=O)C(F)(F)F)CC2 [Example 247, N-((1R,2R)-2-{5-Chloro-2-[8-methoxy-3-(2,2,2-trifluoro-acetyl)-2,3,4,5-tetrahydro-1H-benzo[d]azepin-7-ylamino]-pyrimidin-4-ylamino}-cyclohexyl)-methanesulfonamide]
IC50 [1, 7]: < 100 nM | IC50 [2, 8]: > 10000 nM

SMILES: COc1cc2c(cc1Nc1ncc(Cl)c(Nc3ccccc3S(=O)(=O)C(C)C)n1)CCC(NCCO)CC2 (stereo not drawn) [Example 1090, 2-(2-{5-Chloro-4-[2-(propane-2-sulfonyl)-phenylamino]-pyrimidin-2-ylamino}-3-methoxy-6,7,8,9-tetrahydro-5H-benzocyclohepten-7-ylamino)-ethanol]
IC50 [1, 9]: < 100 nM | IC50 [2, 10]: 1000 to 10000 nM

SMILES: CCN1C(=O)C(N)CCc2c1ccc(Nc1ncc(Cl)c(Nc3ccccc3S(=O)(=O)N(C)C)n1)c2OC (stereo not drawn) [Example 1336, 2-[2-(3-Amino-1-ethyl-6-methoxy-2-oxo-2,3,4,5-tetrahydro-1H-benzo[b]azepin-7-ylamino)-5-chloro-pyrimidin-4-ylamino]-N,N-dimethyl-benzenesulfonamide]
IC50 [1, 9]: < 100 nM | IC50 [2, 10]: > 10000 nM

SMILES: CCN1CCN(CC)c2cc(Nc3ncc(Cl)c(N[C@H]4[C@@H]5CC[C@@H](C5)[C@H]4C(N)=O)n3)ccc2C1 [Example 717, (2-exo,3-exo)-3-[5-Chloro-2-(1,4-diethyl-2,3,4,5-tetrahydro-1H-1,4-benzodiazepin-8-ylamino)-pyrimidin-4-ylamino]bicyclo[2.2.1]heptane-2-carboxylic acid amide]
IC50 [1, 3]: < 100 nM | IC50 [2, 4]: 1000 to 10000 nM

SMILES: CCN1C(=O)CCCc2c1ccc(Nc1ncc(Cl)c(N[C@@H]3CCCC[C@H]3N(C)S(C)(=O)=O)n1)c2OC [Example 1679, N-{(1R,2R)-2-[5-Chloro-2-(1-ethyl-6-methoxy-2-oxo-2,3,4,5-tetrahydro-1H-benzo[b]azepin-7-ylamino)-pyrimidin-4-ylamino]-cyclohexyl}-N-methyl-methanesulfonamide]
IC50 [1, 5]: 100 to 1000 nM | IC50 [2, 6]: > 10000 nM

SMILES: COc1cc2c(cc1Nc1ncc(Cl)c(Nc3ccccc3S(=O)(=O)C(C)C)n1)CCN(CC(=O)N(C)C)CC2 [Example 1151, 2-(7-{5-Chloro-4-[2-(propane-2-sulfonyl)-phenylamino]-pyrimidin-2-ylamino}-8-methoxy-1,2,4,5-tetrahydro-benzo[d]azepin-3-yl)-N,N-dimethyl-acetamide]
IC50 [1, 9]: < 100 nM | IC50 [2, 10]: 1000 to 10000 nM

SMILES: CCN1C2CCC1c1c(ccc(Nc3ncc(Cl)c(N[C@@H]4CCCC[C@H]4NS(C)(=O)=O)n3)c1OC)C2 (stereo partly drawn) [Example 93, N-{(1R,2R)-2-[5-Chloro-2-(12-ethyl-3-methoxy-12-aza-tricyclo[7.2.1.0*2,7*]dodeca-2(7),3,5-trien-4-ylamino)-pyrimidin-4-ylamino]-cyclohexyl}-methanesulfonamide]
IC50 [1, 7]: > 10000 nM | IC50 [2, 8]: > 10000 nM

SMILES: COc1cc2c(cc1Nc1ncc(Cl)c(N[C@H]3[C@@H](C(N)=O)[C@@H]4C=C[C@H]3C4)n1)CCN(CC(=O)N1CCOCC1)CC2 [Example 1527, (1S,2S,3R,4R)-3-{5-Chloro-2-[8-methoxy-3-(2-morpholin-4-yl-2-oxo-ethyl)-2,3,4,5-tetrahydro-1H-3-benzazepin-7-ylamino]-pyrimidin-4-ylamino}-bicyclo[2.2.1]hept-5-ene-2-carboxylic acid amide]
IC50 [1, 5]: < 100 nM | IC50 [2, 6]: > 10000 nM

SMILES: COc1cc2c(cc1Nc1ncc(Cl)c(Nc3ccccc3S(=O)(=O)N3CCCC3)n1)CCN(CC(=O)N(C)C)CC2 [Example 1181, 2-(7-{5-Chloro-4-[2-(pyrrolidine-1-sulfonyl)-phenylamino]-pyrimidin-2-ylamino}-8-methoxy-1,2,4,5-tetrahydro-benzo[d]azepin-3-yl)-N,N-dimethyl-acetamide]
IC50 [1, 9]: < 100 nM | IC50 [2, 10]: 1000 to 10000 nM

SMILES: Cc1cccc(C(N)=O)c1Nc1nc(Nc2ccc3c(c2)NC(=O)CCC3(C)C)ncc1Cl [Example 1577, 2-[5-Chloro-2-(5,5-dimethyl-2-oxo-2,3,4,5-tetrahydro-1H-benzo[b]azepin-8-ylamino)-pyrimidin-4-ylamino]-3-methyl-benzamide]
IC50 [1, 5]: 1000 to 10000 nM | IC50 [2, 6]: 100 to 1000 nM

SMILES: COCC(COC)N1CCc2cc(Nc3ncc(Cl)c(Nc4ccccc4S(=O)(=O)N4CCCC4)n3)c(OC)cc2CC1 [Example 844, 5-Chloro-N*2*-[8-methoxy-3-(2-methoxy-1-methoxymethyl-ethyl)-2,3,4,5-tetrahydro-1H-benzo[d]azepin-7-yl]-N*4*-[2-(pyrrolidine-1-sulfonyl)-phenyl]-pyrimidine-2,4-diamine]
IC50 [1, 3]: < 100 nM | IC50 [2, 4]: 1000 to 10000 nM

Results, then the molecule that gave them:

IC50 [1, 3]: < 100 nM | IC50 [2, 4]: > 10000 nM
SMILES: COc1cc2c(cc1Nc1ncc(Cl)c(Nc3ccccc3S(=O)(=O)N(C)C)n1)CCN(CC(F)F)CC2 [Example 822, 2-{5-Chloro-2-[3-(2,2-difluoro-ethyl)-8-methoxy-2,3,4,5-tetrahydro-1H-benzo[d]azepin-7-ylamino]-pyrimidin-4-ylamino}-N,N-dimethyl-benzenesulfonamide]

IC50 [1, 5]: 1000 to 10000 nM | IC50 [2, 6]: < 100 nM
SMILES: CNC(=O)c1ccccc1N(C)c1nc(Nc2ccc3c(c2)CN(C)C(=O)CC3)ncc1F [Example 1800, 2-{[5-Fluoro-2-(2-methyl-3-oxo-2,3,4,5-tetrahydro-1H-benzo[c]azepin-8-ylamino)-pyrimidin-4-yl]-methyl-amino}-N-methyl-benzamide]

IC50 [1, 9]: 1000 to 10000 nM | IC50 [2, 10]: 1000 to 10000 nM
SMILES: COCCN1CCc2ccc(Nc3ncc(Cl)c(Nc4c(OC)cccc4C(=O)NCCC#N)n3)cc2CC1 [Example 1060, 2-{5-Chloro-2-[3-(2-methoxy-ethyl)-2,3,4,5-tetrahydro-1H-benzo[d]azepin-7-ylamino]-pyrimidin-4-ylamino}-N-(2-cyano-ethyl)-3-methoxy-benzamide]

IC50 [1, 7]: > 10000 nM | IC50 [2, 8]: > 10000 nM
SMILES: CNC(=O)c1ccccc1Nc1nc(Nc2c(OC)ccc3c2C(=O)N(C)CCC3)ncc1Cl [Example 114, 2-[5-Chloro-2-(8-methoxy-2-methyl-1-oxo-2,3,4,5-tetrahydro-1H-benzo[c]azepin-9-ylamino)-pyrimidin-4-ylamino]-N-methyl-benzamide]

IC50 [1, 7]: < 100 nM | IC50 [2, 8]: < 100 nM
SMILES: CNC(=O)c1ccccc1Nc1nc(Nc2ccc3c(c2)CCC(=O)CC3)ncc1Cl [Example 172, 2-[5-Chloro-2-(7-oxo-6,7,8,9-tetrahydro-5H-benzocyclo-hepten-2-ylamino)-pyrimidin-4-ylamino]-N-methyl-benzamide]

IC50 [1, 7]: < 100 nM | IC50 [2, 8]: < 100 nM
SMILES: CNC(=O)c1ccccc1Nc1nc(Nc2ccc3c(c2)CCCC(=O)N3)ncc1Cl [Example 2, 2-[5-Chloro-2-(2-oxo-2,3,4,5-tetrahydro-1H-benzo[b]azepin-7-ylamino)-pyrimidin-4-ylamino]-N-methyl-benzamide]

IC50 [1, 7]: 100 to 1000 nM | IC50 [2, 8]: 1000 to 10000 nM
SMILES: CCN1CCc2ccc(Nc3ncc(Cl)c(N[C@H]4CCC[C@H]4C(N)=O)n3)cc2CC1 (relative stereo) [Example 176, Cis-2-[5-Chloro-2-(3-ethyl-2,3,4,5-tetrahydro-1H-benzo[d]-azepin-7-ylamino)-pyrimidin-4-ylamino]-cyclopentanecarboxylic acid amide]

IC50 [1, 7]: < 100 nM | IC50 [2, 8]: 100 to 1000 nM
SMILES: CCN1CCc2ccc(Nc3ncc(C#N)c(Nc4ccccc4C(=O)NC)n3)cc2CC1 [Example 194, 2-[2-(3-Ethyl-2,3,4,5-tetrahydro-1H-benzo[d]azepin-7-ylamino)-5-cyano-pyrimidin-4-ylamino]-N-methyl-benzamide]

IC50 [1, 5]: 1000 to 10000 nM | IC50 [2, 6]: < 100 nM
SMILES: CNC(=O)c1scc(C)c1Nc1nc(Nc2ccc3c(c2)CNC(=O)CC3)ncc1Cl [Example 1795, 3-[5-Chloro-2-(3-oxo-2,3,4,5-tetrahydro-1H-benzo[c]azepin-8-ylamino)-pyrimidin-4-ylamino]-4-methyl-thiophene-2-carboxylic acid methylamide]

IC50 [1, 7]: 100 to 1000 nM | IC50 [2, 8]: 1000 to 10000 nM
SMILES: CCN1CCc2ccc(Nc3ncc(Cl)c(NCC(C)(C)NS(C)(=O)=O)n3)cc2CC1 [Example 304, N-{2-[5-Chloro-2-(3-ethyl-2,3,4,5-tetrahydro-1H-benzo[d]azepin-7-ylamino)-pyrimidin-4-ylamino]-1,1-dimethyl-ethyl}-methanesulfonamide]
